The results in this text go back to ChEMBL document CHEMBL1154847, “Steroidal saponins from Chlorophytum orchidastrum” (J Nat Prod, 2010).

The test system of one assay is HCT-116. Nature of the assay: Cytotoxicity against human HCT116 cells by MTT assay. It counts as functional, cell-based.
A further assay relates to HT-29. Put plainly: Cytotoxicity against human HT-29 cells by MTT assay. The class given is functional, cell-based.

Take `C[C@H]1CC[C@@]2(OC1)O[C@H]1C[C@H]3[C@@H]4CC[C@H]5C[C@@H](O[C@@H]6[C@@H](O)[C@H](OC[C@H]7O[C@@H](O[C@@H]8[C@@H](O)[C@H](O[C@H]9[C@H](O)[C@@H](CO)O[C@@H](O[C@@H]%10[C@H](O)[C@@H](O)[C@H](O)O[C@@H]%10CO)[C@@H]9O[C@@H]9O[C@H](CO)[C@H](O)[C@H](O)[C@H]9O)O[C@H](CO)[C@H]8O)[C@H](O)[C@@H](O[C@@H]8OC[C@@H](O)[C@H](O)[C@H]8O)[C@@H]7O)O[C@H]6CO)[C@H](O)C[C@]5(C)[C@H]4CC[C@]3(C)[C@H]1[C@@H]2C` [ORCHIDASTROSIDE F]: the values for the 50% inhibitory concentration (IC50) in the assay with HCT-116 and in the assay on HT-29 were 2.12 µM and 8.87 µM, respectively.
On the same counts, the results for `C[C@H]1CC[C@@]2(OC1)O[C@H]1C[C@H]3[C@@H]4CC[C@H]5C[C@@H](O[C@@H]6[C@@H](O)[C@H](OC[C@H]7O[C@@H](O[C@@H]8[C@@H](O)[C@H](O[C@H]9[C@H](O)[C@@H](CO)O[C@@H](O[C@@H]%10[C@H](O)[C@@H](O[C@@H]%11O[C@@H](C)[C@H](O)[C@@H](O)[C@H]%11O)[C@H](O)O[C@@H]%10CO)[C@@H]9O[C@@H]9OC[C@H](O)[C@H](O)[C@H]9O)OC[C@H]8O)[C@H](O)[C@@H](O[C@@H]8O[C@H](CO[C@@H]9O[C@@H](CO)[C@H](O)[C@H]9O)[C@@H](O)[C@H](O)[C@H]8O)[C@@H]7O)O[C@H]6CO)CC[C@]5(C)[C@H]4CC[C@]3(C)[C@H]1[C@@H]2C` [ORCHIDASTROSIDE C] are 1.35 µM and 3.6 µM.
On the same counts, the results for `C[C@H]1CC[C@@]2(OC1)O[C@H]1C[C@H]3[C@@H]4CC[C@H]5C[C@@H](O[C@@H]6[C@@H](O)[C@H](OC[C@H]7O[C@@H](O[C@@H]8[C@@H](O)[C@H](O[C@H]9[C@H](O)[C@@H](CO)O[C@@H](O[C@@H]%10[C@H](O)[C@@H](O)[C@H](O)O[C@@H]%10CO)[C@@H]9O[C@@H]9O[C@H](CO)[C@H](O)[C@H](O)[C@H]9O)O[C@H](CO)[C@H]8O)[C@H](O)[C@@H](O[C@@H]8O[C@H](CO[C@@H]9O[C@@H](CO)[C@H](O)[C@H]9O)[C@@H](O)[C@H](O)[C@H]8O)[C@@H]7O)O[C@H]6CO)[C@H](O)C[C@]5(C)[C@H]4CC[C@]3(C)[C@H]1[C@@H]2C` [ORCHIDASTROSIDE E] are 7 µM and 7 µM.
